Source: patent US20150110725A1, “MIXTURE FOR THE INHIBITION OF MELANIN BIOSYNTHESIS” (GENERAL TOPICS S.R.L., priority 2012, published 2015)

Tested on: murine melanoma named B16
Test: Inhibition of melanin biosynthesis in secondary cultures of murine melanoma B16, 72 hours of exposure
Assay type: cell-based
Procedure: In order to evaluate the inhibition of melanin biosynthesis by the present mixture, an in vitro experimental model was used which consists of secondary cultures of a murine melanoma named B16. This strain is composed of cells with fibroblastoid morphology which produce melanin (Source: European Collection of Cell Cultures, ECACC).
For the tests, powders of the active ingredients were dissolved in ethanol and propylene glycol (1:1) at 10% (w/w) followed by dilution in culture medium DMEM high glucose+10% FBS supplemented with antibiotics (Penicillin 2000 IU/ml, Streptomycin 1000 IU/ml, Gentamicin 10 mg/ml) to final concentrations of: • A) 4-(1-phenylethyl)-1,3-benzenediol: 10 μg/ml; • B) Acetylglucosamine: 25 μg/ml, 50 μg/ml, 75 μg/ml; • C) Ethyl linoleate: 50 μg/ml; • D) 4-(1-phenylethyl)-1,3-benzenediol at concentration of 10 μg/ml and acetylglucosamine at concentration of 75 μg/ml; • E) 4-(1-phenylethyl)-1,3-benzenediol at a concentration of 10 μg/ml, acetylglucosamine at a concentration of 75 μg/ml, and ethyl linoleate at a concentration of 75 μg/ml. • F) hydroquinone at a concentration of 5 μg/ml (non-cytotoxic concentration)
At passage 30 the afore said cells were seeded on 6-well plates for 24 hours at a concentration of 80,000 cells per well. Then, fresh culture medium containing the afore said samples was added. Untreated cells were used as a negative control, whereas cells treated with hydroquinone at a non-cytotoxic concentration of 5 μg/ml were used as a positive control, as indicated above at point F).
Each sample was tested in duplicate.
After 72 hours of exposure, melanin and intracellular proteins were dosed.
Cells were washed once with phosphate buffered saline (PBS) and then lysed with NaOH 0.1N. The lysate was heated at 60° C. for 1 hour to allow melanin to be solubilized.
In order to evaluate the amount of melanin in the cell lysate, a spectrophotometric reading was taken at a wavelength of 405 nm with the use of a colorimeter (Tecan Sunrise Remote Model) equipped with a plate reader.
A standard curve for melanin titrated from 15 to 500 μg/ml was prepared.
The protein dosage was carried out according to the Bradford's method (Bradford M., […]). […]
The reading was taken at 595 nm with a colorimeter (Tecan, Sunrise) equipped with a plate reader.
In order to quantify protein and melanin contents, a standard calibration curve for albumin and melanin was constructed, and their concentrations in the samples were calculated by using the curve fit formula and the corresponding absorbances.
Then, averages of individual data were calculated and, for each sample, the percentage reduction of melanin was calculated compared to the negative control: […]

**Q.** `CC(c1ccccc1)c1ccc(O)cc1O` (stereo not shown) [4-(1-phenylethyl)-1,3-benzenediol] was tested. Which “percentage reduction in melanin biosynthesis” value (10 μg/ml, B16 cells, 72 h) did it give?
**A.** about 50%

**Q.** How did the “average reduction in melanin biosynthesis” value (acetylglucosamine alone, average over 25 μg/ml, 50 μg/ml and 75 μg/ml, B16 cells, 72 h) turn out when `CC(=O)N[C@@H]1[C@@H](O)[C@H](O)[C@@H](CO)O[C@@H]1O` [acetylglucosamine] was run?
**A.** 8%

**Q.** For `CCCCC/C=C\C/C=C\CCCCCCCC(=O)OCC` [ethyl linoleate], which “ability to inhibit melanin synthesis when used individually” value (ethyl linoleate alone (50 μg/ml), compared with the mixture containing it) is on record?
**A.** significantly lower than that of the present mixture

**Q.** With `Oc1ccc(O)cc1` [hydroquinone] as the compound, how does the inhibition at 5 µg/mL (Mus musculus, hydroquinone at non-cytotoxic concentration (5 μg/ml), positive control, B16 cells, 72 h, read-out: ability to inhibit melanin biosynthesis) read?
**A.** ~40%
